Measured values as given in ChEMBL document CHEMBL3351435, “New pyrrole derivatives with potent tubulin polymerization inhibiting activity as anticancer agents including hedgehog-dependent cancer” (J Med Chem, 2014).
The source made the active and inactive calls. The rule behind the calls is not given here.

How the values were obtained:
Tubulin = test: Inhibition of tubulin (unknown origin) polymerization incubated 15 mins prior to GTP addition by spectrophotometry; format: protein-complex assay, Homo sapiens
MCF7 = test: Cytotoxicity against human MCF7 cells after 96 hrs by Giemsa staining-based light microscopy; format: functional, cell-based; settings: MCF7, 96 h
Tubulin (Homo sapiens) [1] = target: T1, Tubulin (Homo sapiens) (UniProt P68371+Q9H4B7+P0DPH7+P68366+Q13509+Q71U36+P04350+Q3ZCM7+P07437+P68363+Q9BQE3+Q6PEY2+Q13885+Q9BVA1+Q9BUF5); test: Displacement of [3H]colchicine from tubulin (unknown origin) at 5 uM after 10 mins; format: protein-complex assay
Tubulin (Homo sapiens) [2] = target: T1, Tubulin (Homo sapiens); test: Inhibition of tubulin (unknown origin) polymerization at 20 uM incubated 15 mins prior to GTP addition by spectrophotometry; format: protein-complex assay
HeLa [3] = test: Cytotoxicity against human HeLa cells assessed as growth inhibition after 48 hrs by MTT method; format: functional, cell-based
HT-29 = test: Cytotoxicity against human HT-29 cells assessed as growth inhibition after 48 hrs by MTT method; format: functional, cell-based; settings: HT-29, 48 h
A549 = test: Cytotoxicity against human A549 cells assessed as growth inhibition after 48 hrs by MTT method; format: functional, cell-based; settings: A549, 48 h
K562 [4] = test: Cytotoxicity against human K562 cells assessed as growth inhibition after 96 hrs by Giemsa staining-based light microscopy; format: functional, cell-based; settings: K562, 96 h
K562 [5] = test: Cell cycle arrest in human K562 cells assessed as mitotic index at 10 times IC50 (reference value: […] +/- […]%); format: functional
K562 [6] = test: Cell cycle arrest in human K562 cells assessed as mitotic index at 4 uM (reference value: 3 +/- 1%)
NCI/ADR-RES = test: Cytotoxicity against human NCI/ADR-RES cells assessed as growth inhibition after 96 hrs by Giemsa staining-based light microscopy; format: functional, cell-based
[7] = Cytotoxicity against human MESSA cells assessed as growth inhibition after 72 hrs by CellTitre-Glo assay; format: functional, cell-based; settings: MES-SA
[8] = Cytotoxicity against human MESSA/DX5 cells assessed as growth inhibition after 72 hrs by CellTitre-Glo assay; format: functional, cell-based; settings: MES-SA/Dx5, 72 h
cells = settings: Homo sapiens, OVCAR-8, 96 h
Description: Cytotoxicity against human OVCAR8 cells assessed as growth inhibition after 96 hrs by Giemsa staining-based light microscopy

[9] = Cell cycle arrest in human PC3 cells assessed as accumulation at G2/M phase at 500 nM after 24 hrs by propidium iodide staining-based flow cytometry; format: functional; settings: PC-3
RD [10] = test: Cell cycle arrest in human RD cells assessed as accumulation at G2/M phase at 500 nM after 24 hrs by propidium iodide staining-based flow cytometry; format: functional
[11] = Cell cycle arrest in human PC3 cells assessed as rounded cells at 500 nM after 24 hrs by propidium iodide staining-based flow cytometry; format: functional; settings: PC-3
RD [12] = test: Cell cycle arrest in human RD cells assessed as rounded cells at 500 nM after 24 hrs by propidium iodide staining-based flow cytometry; format: functional
[13] = Cell cycle arrest in human PC3 cells at 500 to 2000 nM incubated for 24 hrs followed by compound washout measured after 24 hrs; format: functional, cell-based; settings: PC-3
RD [14] = test: Cell cycle arrest in human RD cells at 1000 to 2000 nM incubated for 24 hrs followed by compound washout measured after 24 hrs; format: functional, cell-based
RD [15] = test: Cell cycle arrest in human RD cells at 500 nM incubated for 24 hrs followed by compound washout measured after 24 hrs; format: functional, cell-based
HepG2 [16] = test: Cell cycle arrest in human HepG2 cells at 500 to 2000 nM incubated for 24 hrs followed by compound washout measured after 24 hrs; format: functional, cell-based
HeLa [17] = test: Cell cycle arrest in human HeLa cells assessed as accumulation at G2/M phase at 20 nM by propidium iodide staining-based flow cytometry; format: functional
HeLa [18] = test: Cell cycle arrest in human HeLa cells assessed as mitotic rounded-up phenotype at 20 nM by light microscopy; format: functional, cell-based
RD [19] = test: Cytotoxicity against human RD cells assessed as growth inhibition after 48 hrs by MTT method; format: functional, cell-based
HepG2 [20] = test: Cytotoxicity against human HepG2 cells assessed as growth inhibition after 48 hrs by MTT method; format: functional, cell-based; settings: HepG2, 48 h

| IC50 (Tubulin) [µM] | inhibition (Tubulin (Homo sapiens) [1]) [%] | SMILES | IC50 (MCF7) [µM] | further results |
| --- | --- | --- | --- | --- |
| 2.1 | 55 | COc1cc(C(=O)c2ccn(-c3cccc(F)c3)c2)cc(OC)c1OC | 1.3 |  |
| 1.3 | 89 | COc1ccc(-n2ccc(C(=O)c3cc(OC)c(OC)c(OC)c3)c2)cc1N | 0.47 |  |
|  |  | COc1ccc(C(=O)c2ccn(-c3cc(OC)c(OC)c(OC)c3)c2)cc1OC(C)C |  | inhibition (Tubulin (Homo sapiens) [2]): inactive |
| 1.3 | 79 | COc1ccc(-n2ccc(C(=O)c3cc(OC)c(OC)c(OC)c3)c2)cc1O | 4.5 | IC50 (HeLa [3]): 0.2 µM; IC50 (HT-29): > 10 µM; IC50 (A549): > 10 µM |
| 1.5 | 60 | COc1cc(C(=O)c2ccn(-c3cccc(N(C)C)c3)c2)cc(OC)c1OC | 1 |  |
| 2.2 | 58 | COc1cc(C(=O)c2ccn(-c3cccc(Cl)c3)c2)cc(OC)c1OC | 0.6 |  |
| 8.8 |  | COc1cc(C(=O)c2ccn(-c3ccccc3Cl)c2)cc(OC)c1OC | 4.5 |  |
|  |  | COc1cc(C(=O)c2ccn(-c3cccc(OCc4ccccc4)c3)c2)cc(OC)c1OC |  | inhibition (Tubulin (Homo sapiens) [2]): inactive |
|  |  | COc1cc(-n2ccc(C(=O)c3ccccc3)c2)cc(OC)c1OC |  | inhibition (Tubulin (Homo sapiens) [2]): inactive |
| 13 |  | COc1cc(C(=O)c2ccn(-c3ccccc3C)c2)cc(OC)c1OC |  |  |
| 1 | 77 | COc1cc(C(=O)c2ccn(-c3ccccc3F)c2)cc(OC)c1OC | 1 |  |
| 8.9 |  | COc1cc(C(=O)c2ccn(-c3cccc([N+](=O)[O-])c3)c2)cc(OC)c1OC |  |  |
|  |  | COc1ccc(-n2ccc(C(=O)c3cc(OC)c(OC)c(OC)c3)c2)cc1[N+](=O)[O-] | 0.83 |  |
| > 40 |  | COc1cc(C(=O)c2cc[nH]c2)cc(OC)c1OC |  |  |
| 1.7 | 48 | COc1ccc(-n2ccc(C(=O)c3cc(OC)c(OC)c(OC)c3)c2)cc1OC(C)C |  | IC50 (HeLa [3]): 0.8 µM; IC50 (HT-29): 0.8 µM; IC50 (A549): 1 µM |
|  |  | COc1cc(C(=O)c2ccn(-c3ccc([N+](=O)[O-])cc3)c2)cc(OC)c1OC |  | inhibition (Tubulin (Homo sapiens) [2]): inactive |
|  |  | O=C(c1ccccc1)c1ccn(-c2ccccc2)c1 |  | inhibition (Tubulin (Homo sapiens) [2]): inactive |
|  |  | COc1ccc(C(=O)c2ccn(-c3cc(OC)c(OC)c(OC)c3)c2)cc1O |  | inhibition (Tubulin (Homo sapiens) [2]): inactive |
|  |  | COc1cc(C(=O)c2ccn(-c3cccc(N4CCCCC4)c3)c2)cc(OC)c1OC |  | inhibition (Tubulin (Homo sapiens) [2]): inactive |

| IC50 (Tubulin) [µM] | inhibition (Tubulin (Homo sapiens) [1]) [%] | SMILES | IC50 (MCF7) [µM] | further results |
| --- | --- | --- | --- | --- |
| > 40 |  | COc1cc(C(=O)c2ccn(C)c2)cc(OC)c1OC |  |  |
| 2.3 | 73 | COc1cc(C(=O)c2ccn(-c3ccc(Cl)cc3)c2)cc(OC)c1OC | 0.2 |  |
| 2.1 | 56 | COc1ccc(-n2ccc(C(=O)c3cc(OC)c(OC)c(OC)c3)c2)cc1OC | 0.1 |  |
| 2.5 | 17 | COc1cc(C(=O)c2ccn(-c3cccc(OC(C)C)c3)c2)cc(OC)c1OC | 0.25 |  |
|  |  | CC[C@]1(O)C[C@H]2CN(CCc3c([nH]c4ccccc34)[C@@](C(=O)OC)(c3cc4c(cc3OC)N(C=O)[C@H]3[C@@](O)(C(=O)OC)[C@H](OC(C)=O)[C@]5(CC)C=CCN6CC[C@]43[C@@H]65)C2)C1 |  | Activity [9]: Active; Activity (RD [10]): Active; Activity [11]: Active; Activity (RD [12]): Active; Activity [13]: inactive; Activity (RD [14]): inactive; Activity (RD [15]): Active; Activity (HepG2 [16]): inactive |
|  |  | COc1cc(C(=O)c2ccn(-c3ccc(OC(C)C)cc3)c2)cc(OC)c1OC |  | inhibition (Tubulin (Homo sapiens) [2]): inactive |
| 16 |  | COc1cc(C(=O)c2ccn(S(=O)(=O)c3ccccc3)c2)cc(OC)c1OC |  |  |
| 6.1 |  | COc1cc(C(=O)c2ccn(-c3ccccc3OC(C)C)c2)cc(OC)c1OC |  |  |
| 0.95 | 79 | COc1cc(C(=O)c2ccn(-c3cccc(C)c3)c2)cc(OC)c1OC | 0.05 |  |
| 1.7 | 67 | COc1cc(C(=O)c2ccn(-c3ccccc3O)c2)cc(OC)c1OC | 0.53 |  |
| 1.4 | 78 | COc1cc(C(=O)c2ccn(-c3ccc(F)cc3)c2)cc(OC)c1OC | 0.19 |  |
|  | 59 | COc1cc(C(=O)c2ccn(-c3ccc(O)cc3)c2)cc(OC)c1OC | 0.45 |  |
|  |  | CC[C@]1(O)C[C@@H]2CN(CCc3c([nH]c4ccccc34)[C@@](C(=O)OC)(c3cc4c(cc3OC)N(C)[C@H]3[C@@](O)(C(=O)OC)[C@H](OC(C)=O)[C@]5(CC)C=CCN6CC[C@]43[C@@H]65)C2)C1 [VINBLASTINE] |  | IC50 [7]: 0.003 µM; IC50 [8]: 0.144 µM; Activity (HeLa [17]): Active; Activity (HeLa [18]): Active; IC50 (RD [19]): 0.0525 µM; IC50 (HepG2 [20]): 0.0807 µM; Activity [9]: Active; Activity (RD [10]): Active; Activity [11]: Active; Activity (RD [12]): Active; Activity [13]: inactive; Activity (RD [14]): inactive; Activity (RD [15]): Active; Activity (HepG2 [16]): inactive; IC50 (cells): 0.015 µM |
| 1.3 | 81 | COc1cc(C(=O)c2ccn(-c3ccc(N)cc3)c2)cc(OC)c1OC | 0.015 |  |
| 6.8 |  | COc1cc(C(=O)c2ccn(-c3ccccc3N)c2)cc(OC)c1OC |  |  |
| > 40 |  | COc1cc(C(=O)c2ccn(-c3cc(OC)c(OC)c(OC)c3)c2)cc(OC)c1OC |  |  |
| 1.2 | 86 | COc1cc(C(=O)c2ccn(-c3cccc(O)c3)c2)cc(OC)c1OC | 0.4 |  |
|  |  | COc1cc(C(=O)c2ccn(-c3ccccc3[N+](=O)[O-])c2)cc(OC)c1OC |  | inhibition (Tubulin (Homo sapiens) [2]): inactive |

| SMILES | IC50 (Tubulin) [µM] | inhibition (Tubulin (Homo sapiens) [1]) [%] | IC50 (MCF7) [µM] | further results |
| --- | --- | --- | --- | --- |
| COc1cc(C(=O)c2ccn(-c3ccc(C)cc3)c2)cc(OC)c1OC | 0.9 | 95 |  | IC50 (K562 [4]): 0.03 µM; Activity (K562 [5]): 61% |
| COc1cc(C(=O)c2ccn(-c3cccc(NS(C)(=O)=O)c3)c2)cc(OC)c1OC | 0.86 | 84 | 0.06 | Activity (K562 [5]): 61% |
| COc1cc(C(=O)c2ccn(-c3cccc(NC(C)C)c3)c2)cc(OC)c1OC | 2.5 | 53 | 0.02 | IC50 (K562 [4]): 0.5 µM; Activity (K562 [6]): 69% |
| COc1cc(C(=O)c2ccn(-c3cccc(N4CCCC4)c3)c2)cc(OC)c1OC | 2.5 | 23 | 0.016 | IC50 (K562 [4]): 0.95 µM; Activity (K562 [6]): 39% |
| COc1cc(C(=O)c2ccn(-c3cccc(-n4cccc4)c3)c2)cc(OC)c1OC | 2.5 | 27 | 0.043 | IC50 (K562 [4]): 0.09 µM; Activity (K562 [5]): 47% |
| COc1ccc(-n2ccc(C(=O)c3cc(OC)c(OC)c(OC)c3)c2)cc1 | 1.2 | 76 | 0.25 | IC50 (HeLa [3]): 0.15 µM; IC50 (HT-29): 0.2 µM; IC50 (A549): 0.08 µM; IC50 (NCI/ADR-RES): 0.017 µM; IC50 [7]: 0.063 µM; IC50 [8]: 0.087 µM; IC50 (cells): 0.06 µM |
| CNc1cccc(-n2ccc(C(=O)c3cc(OC)c(OC)c(OC)c3)c2)c1 | 1 | 92 |  | IC50 (K562 [4]): 0.03 µM; Activity (K562 [5]): 61% |
| COc1cc(C(=O)c2ccn(Cc3ccccc3)c2)cc(OC)c1OC | > 40 |  |  |  |
| COc1cccc(-n2ccc(C(=O)c3cc(OC)c(OC)c(OC)c3)c2)c1 | 1.8 | 66 | 0.6 | IC50 (HeLa [3]): 1 µM; IC50 (HT-29): 0.8 µM; IC50 (A549): 3 µM; IC50 (NCI/ADR-RES): 0.09 µM; IC50 [7]: 0.262 µM; IC50 [8]: 0.471 µM; IC50 (cells): 0.25 µM |
| COc1ccccc1-n1ccc(C(=O)c2cc(OC)c(OC)c(OC)c2)c1 | 2.7 | 50 | 3.5 | IC50 (HeLa [3]): 0.9 µM; IC50 (HT-29): 1 µM; IC50 (A549): 1 µM; IC50 (NCI/ADR-RES): 0.2 µM; IC50 [7]: 0.515 µM; IC50 [8]: 0.653 µM; IC50 (cells): 0.45 µM |
